According to patent US12312346B2, “Pyridopyrimidine compounds and methods of their use” (Tufts Medical Center, Inc., priority 2018, dated 2025):
Entries after “also recorded” stand apart in the source; their conditions may differ.

How the values were obtained:
mouse WT-MEFs = test: Cell cycle and cell number, WT-MEFs; type: cell-based
Procedure: FIG. 6A is a series of charts showing representative cell cycle profiles of mouse WT-MEFs treated with a vehicle (V), PD (0.5 μM), LEE (10 μM), or compound GD at 1, 5, and 10 μM for 6 days.
FIG. 6B is a histogram summarizing the cell cycle distribution in FIG. 6A. Data shown are mean±S.D. (n=6); *P<0.05 vs vehicle control, t-test.
FIG. 6C is a chart showing the percentage of S-G2-M cells in FIG. 6B.
FIG. 6D is a bar graph summarizing the cell number of WT-MEFs treated with PD (0.5 μM), LEE (10 μM), or compound GD at varying doses for 6 days. Data shown are mean±S.D. (n=6); *P<0.05 vs vehicle control, t-test.
HCl salt of 6-acetyl-5-methyl-2-((4-(piperazin-1-ylmethyl)thiazol-2-yl)amino)pyrido[2,3-d]pyrimidin-7(8H)-one (Compound GD) prepared in Example 1 was examined for its inhibitory activity in cancer cell lines and WT and CDK6^−/− mouse embryonic fibroblasts (MEFs) and stromal vascular fractions (SVFs). MEFs and SVFs are enriched with mesenchymal stem cells (MSC) and pre-adipocytes which can differentiate into a variety of cell types, including adipocytes.

[1] = test system: phosphorylated pRB at SER-780 in HELA cells; test: Immunoblot of phosphorylated pRB (SER-780), HELA; type: cell-based
Procedure: FIG. 5E is an image of a representative immunoblot showing the levels of phosphorylated pRB at SER-780 in HELA cells following treatment of these cells with a vehicle, PD, or compound GD for 24 hours. Tubulin was used as loading control.
(§1) Table 2: Experimental Procedures: sensitivity to CDK6 kinase activity inhibition was tested by incubating different cell lines in the presence of CDK6 inhibitor GD007/PBS for either 24 hours for detecting the status of pRB-780 phosphorylation, or 5 days for determining the effect of GD007 on cell proliferation. (1) By immunoblotting (WB), we will detect phospho-pRB-S^780, one of the substrates of CDK6 kinase; (2) By using FACS analysis, we will stain treated cells with Propidium Iodide (PI), a commonly used fluorescent intercalator, to measure the subpopulation of cell cycle to reveal any impact of CDK6 inhibition on cell proliferation; (3) cell numbers will be counted using hemocytometer.

[2] = test system: phosphorylated pRB at SER-780 in HPAC-1 cells; test: Immunoblot of phosphorylated pRB (SER-780) and PI staining, HPAC-1; type: cell-based
Procedure: FIG. 5D is an image of a representative immunoblot showing the levels of phosphorylated pRB at SER-780 in HPAC-1 cells following treatment of these cells with a vehicle, PD, or compound GD for 24 hours. Tubulin was used as loading control.
as §1

[3] = test system: phosphorylated pRB at SER-780 in MDA-MB231 cells; test: Immunoblot of phosphorylated pRB (SER-780) and PI staining, MDA-MB231; type: cell-based
Procedure: FIG. 5A is an image of a representative immunoblot showing the levels of phosphorylated pRB at SER-780 in MDA-MB231 and HPBALL cells following treatment of these cells with a vehicle, PD, or compound GD for 24 hours. Tubulin was used as loading control.
as §1

[4] = test system: A549 (lung cancer cells) xenograft tumors; test: A549 xenograft mouse model; type: in vivo; settings: female Nod/Scid mice
Procedure: A549 cells (3×10^5/each side) were inoculated ectopically in female Nod/Scid mice. One week after inoculation, tumor bearing mice were treated with GD at 200 mg/kg/day or PBS by oral gavage for 21 days. Data shown are mean±S.D. (n=8 for each group), *p<0.05, t-test, GD vs. PBS.
FIG. 10B is a graph showing body weight of two groups of mice during the observation time. Body weights shown are mean±S.D. (n=4 for each group).
We examined the therapeutic efficacy of GD against A549 (lung cancer cells) xenograft tumors. A549 cells (3×10^5 per side in 100 μl of 50% Matrigel) were inoculated ectopically in female Nod/Scid mice on both sides. When tumor sizes reached ˜50 mm^3, animals were divided into 2 groups (n=4 mice per group), and treated with PBS or GD at dose of 200 mg/kg/day over a 21-day period (Kwapisz, supra).
Tumor sizes were measured with standard calipers every day and tumor volumes were calculated using standard methods (caliper measurements are commonly collected along the longest two dimensions of the tumor x/y plane only, with the z-axis dimension assumed to be the same as the shortest dimension) (Tomayko et al., Cancer Chemother. Pharmacol. 24:148-154, 1989). Weekly body weights were measured at designed times. At the end of the experiments, all of the tumors were isolated from the mice and weighed.

[5] = test system: human leukemia cell line PEER (with WT Notch); test: Cell cycle (PI staining, S-G2-M cells), PEER; type: cell-based
Procedure: FIG. 3A Representative cell cycle profiles of human leukemia cell line PEER (with WT Notch) treated with a vehicle (V) (for palbociclib (PD) or compound GD), PD (0.5 μM), or compound GD at 0.05, 0.5, and 5 μM for 6 days.
FIG. 3B is a histogram summarizing the cell cycle distribution of the PEER cell line in FIG. 3A. Data shown are mean±S.D. (n=6); *P<0.05 vs its vehicle controls, t-test.
FIG. 3C is a chart showing the percentage of S-G2-M cells in FIG. 3B. […]
as §1

Prostate Cancer: PC-3 = test: pRB-780 immunoblot, PC-3; type: cell-based; settings: WB: P-RB-780
Procedure: as §1

For `CC(=O)c1c(C)c2cnc(Nc3nc(CN4CCNCC4)cs3)nc2[nH]c1=O` [Compound GD, 6-acetyl-5-methyl-2-((4-(piperazin-1-ylmethyl)thiazol-2-yl)amino)pyrido[2,3-d]pyrimidin-7(8H)-one], the IC50 (mouse WT-MEFs; 144 h, mouse WT-MEF, 6 days, read-out: IC50 (proliferation, percentage of S-G2-M cells)) was ~1200 nM, the “fraction of dead cells (effect on cell viability) relative to PD” value (mouse WT-MEFs; WT-MEFs, FIG. 6B, GD 10 μM vs PD 0.5 μM) was “smaller” and the “Compound GD Efficacy” value ([1]; Cervical Cancer: Hela, WB: P-RB-780) was “Efficacious”. For the same molecule, the pRB phosphorylation ([1]; cervical cancer cell line (Hela cells), 24 hours) was “inhibits pRB phosphorylation”, the “Compound GD Efficacy” value ([2]; Pancreas Cancer: HPAC, WB and PI staining) was “Efficacious” and the pRB phosphorylation ([2]; pancreas adenocarcinoma (HPAC-1), 24 hours) was “inhibits pRB phosphorylation”. The “Compound GD Efficacy” value ([3]; MDA-MB231, PI staining and WB: P-RB-780) was “Efficacious”, the pRB phosphorylation ([3]; breast cancer cell line MDA-MB231, 24 hours) was “inhibits pRB phosphorylation” and the “tumor weights vs PBS” value ([4]; 200 mg/kg/day for 21 days, end of experiment, FIGS. 10D-10E) was “reduced; also recorded: decreased tumor weights”. For the same molecule, the “tumor volumes (xenograft tumor growth) vs PBS” value ([4]; 200 mg/kg/day oral gavage for 21 days, FIG. 10A) was “reduced; also recorded: suppressed xenograft tumor growth”, the IC50 ([5]; Homo sapiens, 144 h, PEER, 6 days, read-out: IC50 (percentage of S-G2-M cells, growth inhibition)) was ~1300 nM and the “Compound GD Efficacy” value ([5]; Leukemic cells: PEER, PI Staining, and cell number counting) was “Efficacious”. For the same molecule, the “Compound GD Efficacy” value (Prostate Cancer: PC-3) was “No”.
